According to US10947229B2, “Dimethyl amino azetidine amides as JAK inhibitors” (THERAVANCE BIOPHARMA R&D IP, LLC, priority 2018, dated 2021):

Columns and labels:
JAK3 = JAK3 (Homo sapiens (Human), UniProt P52333); test: Biochemical JAK kinase assay (LanthaScreen), JAK3
Description: (§1) Recombinant GST-tagged JAK enzymes and a GFP-tagged STAT1 peptide substrate were obtained from Life Technologies. Serially diluted compounds were pre-incubated with each of the four JAK enzymes and the substrate in white 384-well microplates (Corning) at ambient temperature for 1 h. ATP was subsequently added to initiate the kinase reactions in 10 μL total volume, with 1% DMSO. […] Kinase reactions were allowed to proceed for 1 hour at ambient temperature before a 10 μL preparation of EDTA (10 mM final concentration) and Tb-anti-pSTAT1 ([…]) antibody (Life Technologies, 2 nM final concentration) in TR-FRET dilution buffer (Life Technologies) was added. The plates were allowed to incubate at ambient temperature for 1 h before being read on the EnVision reader (Perkin Elmer). Emission ratio signals (520 nm/495 nm) were recorded and utilized to calculate the percent inhibition values based on DMSO and background controls. For dose-response analysis, percent inhibition data were plotted vs. compound concentrations, and IC50 values were determined from a 4-parameter robust fit model with the Prism software (GraphPad Software). Results were expressed as pIC50 (negative logarithm of IC50) and subsequently converted to pKi (negative logarithm of dissociation constant, Ki) using the Cheng-Prusoff equation.

Tyk2 = Tyk2 (Homo sapiens (Human), UniProt P29597); test: Biochemical JAK kinase assay (LanthaScreen), Tyk2
Tyk2, sequence (P29597 whole entry): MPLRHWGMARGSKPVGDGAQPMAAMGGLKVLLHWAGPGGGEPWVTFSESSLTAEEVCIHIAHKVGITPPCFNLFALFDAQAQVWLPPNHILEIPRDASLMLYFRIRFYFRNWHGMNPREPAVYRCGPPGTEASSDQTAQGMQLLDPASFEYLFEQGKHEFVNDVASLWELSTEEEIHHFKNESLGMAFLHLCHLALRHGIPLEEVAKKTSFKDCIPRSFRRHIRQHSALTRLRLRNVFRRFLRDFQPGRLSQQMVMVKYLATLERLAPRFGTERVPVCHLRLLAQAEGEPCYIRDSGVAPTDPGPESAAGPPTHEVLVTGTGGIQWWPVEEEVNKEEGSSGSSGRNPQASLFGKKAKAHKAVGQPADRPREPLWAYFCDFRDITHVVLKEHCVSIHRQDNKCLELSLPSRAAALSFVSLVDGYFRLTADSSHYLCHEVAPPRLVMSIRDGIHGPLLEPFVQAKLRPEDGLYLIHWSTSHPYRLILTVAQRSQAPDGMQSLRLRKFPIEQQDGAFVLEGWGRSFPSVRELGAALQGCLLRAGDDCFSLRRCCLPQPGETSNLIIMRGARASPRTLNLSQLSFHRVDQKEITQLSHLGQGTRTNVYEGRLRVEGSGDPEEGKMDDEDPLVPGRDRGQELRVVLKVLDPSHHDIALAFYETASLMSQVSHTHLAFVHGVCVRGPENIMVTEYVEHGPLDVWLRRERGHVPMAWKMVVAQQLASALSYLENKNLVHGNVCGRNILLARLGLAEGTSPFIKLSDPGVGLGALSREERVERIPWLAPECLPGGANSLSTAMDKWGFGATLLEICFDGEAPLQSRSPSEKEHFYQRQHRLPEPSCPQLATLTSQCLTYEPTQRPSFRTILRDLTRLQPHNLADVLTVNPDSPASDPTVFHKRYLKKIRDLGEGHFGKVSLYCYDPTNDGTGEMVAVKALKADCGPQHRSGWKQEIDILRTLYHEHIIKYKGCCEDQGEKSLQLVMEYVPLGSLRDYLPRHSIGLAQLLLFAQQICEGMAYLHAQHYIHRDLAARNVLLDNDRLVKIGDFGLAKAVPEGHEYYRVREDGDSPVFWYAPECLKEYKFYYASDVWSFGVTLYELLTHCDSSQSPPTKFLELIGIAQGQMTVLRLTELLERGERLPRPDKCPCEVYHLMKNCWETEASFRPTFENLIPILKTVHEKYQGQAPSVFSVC
Description: as §1

Lung S9 metabolism = type: in vitro ADME, human; conditions: for Compound Remaining at 60 min (%) / microsomal CLint at 1 µM: human lung S9, 1 μM compound, 1 mg/mL S9 protein; for Sulfate Appearance: human lung S9, qualitative O-sulfate metabolite peak; for microsomal CLint at 1 µM: human lung S9 fraction, pH 7.4, NADPH and PAPS, read-out: Clearance
Description: The time 0, 15, 30, and 60 minute samples were analyzed for parent compound by high resolution LC-MS/MS. Lung S9 fractions from human (lot 1410245) were purchased from XenoTech LLC (Lenexa, Kans.). NADPH (Sigma Aldrich, N1630) and 3-phosphoadenosine 5-phosphosulfate (PAPS) (Sigma Aldrich, A1651) were purchased from Sigma Aldrich (St. Louis, Mo.). Acetonitrile and water were obtained from VWR (Radnor, Pa.) and were of HPLC grade or better. Raloxifene and formic acid was purchased from Sigma Aldrich (St. Louis, Mo.). Lung S9 incubations were performed in a water bath at 37° C. in a 96-well polypropylene plate. […] Louis, Mo.), 3 mM magnesium chloride (Sigma Aldrich, M1028) and in the presence of 100 μM PAPS (Sigma-Aldrich, St. […] Incubation volumes consisted of 400 μL and time points were taken at 0, 15, 30, and 60 minutes by the removal of a 70 μL aliquot and dilution into 140 μL acetonitrile (0% formic acid). All samples were centrifuged at 2250 g for 10 minutes at 5° C. Supernatant […] was taken from the centrifuged samples and diluted into 100 μL HPLC water containing internal standard. The samples were run on a Dionex Ultimate 3000 Auto sampler and analyzed using a Thermo Q-Exactive High Resolution Mass Spectrometer (Thermo, Waltham, Mass.) in Full Scan mode in conjunction with an Atlantis T3 column 3 μM-2.1×50 mm (Waters Inc., 186003717). Mobile Phase A consisted of Water+0.2% formic acid and Mobile Phase B consisted of acetonitrile +0.2% formic acid. Peak integration was accomplished using Gubbs GMSU software (Gubbs Inc., Alpharetta, Ga.). For each sample, peak area ratios were calculated by dividing the analyte peak area by the internal standard peak area. For each incubation, the peak area ratios of the analytes in each t0 was set to 100%, and the peak areas ratios from the 60 minute samples were converted to percentages remaining relative to the corresponding t0. Determination of sulfate metabolite formation was made qualitatively by observation of early-eluting peak in the parent ion channel which, based on historical internal data, corresponded to the O-sulfate metabolite of each parent compound.

JAK2 = JAK2 (Homo sapiens (Human), UniProt O60674); test: Biochemical JAK kinase assay (LanthaScreen), JAK2
JAK2, sequence (O60674 whole entry): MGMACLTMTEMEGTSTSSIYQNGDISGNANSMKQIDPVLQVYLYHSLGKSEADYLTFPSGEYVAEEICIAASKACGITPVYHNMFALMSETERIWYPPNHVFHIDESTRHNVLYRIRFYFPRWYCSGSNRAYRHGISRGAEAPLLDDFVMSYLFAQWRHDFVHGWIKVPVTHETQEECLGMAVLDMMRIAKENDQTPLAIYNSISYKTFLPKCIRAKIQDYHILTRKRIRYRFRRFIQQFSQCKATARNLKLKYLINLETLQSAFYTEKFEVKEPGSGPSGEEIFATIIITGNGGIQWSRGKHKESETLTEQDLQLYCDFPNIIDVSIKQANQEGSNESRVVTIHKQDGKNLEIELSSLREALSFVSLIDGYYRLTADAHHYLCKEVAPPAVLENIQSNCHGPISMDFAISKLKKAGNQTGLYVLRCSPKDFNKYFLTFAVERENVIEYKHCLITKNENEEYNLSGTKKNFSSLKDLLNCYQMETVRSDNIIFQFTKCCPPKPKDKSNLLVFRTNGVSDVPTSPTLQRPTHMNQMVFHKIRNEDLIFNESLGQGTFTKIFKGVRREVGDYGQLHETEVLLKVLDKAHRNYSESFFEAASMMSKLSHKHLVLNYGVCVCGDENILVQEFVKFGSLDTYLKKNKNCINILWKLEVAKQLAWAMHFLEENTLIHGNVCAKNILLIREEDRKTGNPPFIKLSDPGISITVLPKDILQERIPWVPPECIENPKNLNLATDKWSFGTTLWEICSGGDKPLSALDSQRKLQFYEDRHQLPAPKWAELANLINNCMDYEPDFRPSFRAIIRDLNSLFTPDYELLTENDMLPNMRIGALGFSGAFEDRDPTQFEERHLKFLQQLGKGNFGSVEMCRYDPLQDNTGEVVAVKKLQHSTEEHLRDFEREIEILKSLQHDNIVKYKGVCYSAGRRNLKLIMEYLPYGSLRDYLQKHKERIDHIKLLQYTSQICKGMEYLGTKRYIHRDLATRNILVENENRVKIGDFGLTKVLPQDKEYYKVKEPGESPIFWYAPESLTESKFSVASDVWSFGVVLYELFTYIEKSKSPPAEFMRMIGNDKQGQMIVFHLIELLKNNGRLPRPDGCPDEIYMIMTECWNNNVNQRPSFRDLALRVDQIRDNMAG
Description: as §1, with “equation. Test compounds having a lower Ki value or higher pKi value in the four JAK assays show greater inhibition of JAK activity.” for “equation.”

[1] = system: IL-2 stimulated pSTAT5 in Tall-1 T cells; test: Inhibition of IL-2 stimulated pSTAT5 in Tall-1 T cells; type: cell-based; conditions: IL-2 stimulated pSTAT5, Tall-1 human T cell line; read-out: Tall-1 pIC50 (converted)
Description: The potency of test compounds for inhibition of interleukin-2 (IL-2) stimulated STAT5 phosphorylation was measured in the Tall-1 human T cell line (DSMZ) using AlphaLisa. Because IL-2 signals through JAK1/3, this assay provides a measure of JAK1/3 cellular potency.
Phosphorylated STAT5 was measured via the AlphaLISA SureFire Ultra pSTAT5 (Tyr694/699) kit (PerkinElmer).
Human T cells from the Tall-1 cell line were cultured in a 37° C., 5% CO2 humidified incubator in RPMI (Life Technologies) supplemented with 15% Heat Inactivated Fetal Bovine Serum (FBS, Life Technologies), 2 mM Glutamax (Life Technologies), 25 mM HEPES (Life Technologies) and 1× Pen/Strep (Life Technologies). Compounds were serially diluted in DMSO and dispensed acoustically to empty wells. Assay media (phenol red-free DMEM (Life Technologies) supplemented with 10% FBS (ATCC)) was dispensed (4 μL/well) and plates shaken at 900 rpm for 10 mins. Cells were seeded at 45,000 cells/well in assay media (4 μL/well), and incubated at 37° C., 5% CO2 for 1 hour, followed by the addition of IL-2 (R&D Systems; final concentration 300 ng/mL) in pre-warmed assay media (4 μL) for 30 minutes. After cytokine stimulation, cells were lysed with 6 ul of 3× AlphaLisa Lysis Buffer (PerkinElmer) containing 1× PhosStop and Complete tablets (Roche). The lysate was shaken at 900 rpm for 10 minutes at room temperature (RT). Phosphorylated STAT5 was measured via the pSTAT5 AlphaLisa kit (PerkinElmer). Freshly prepared acceptor bead mixture was dispensed onto lysate (5 μL) under green filtered <100 lux light. Plates were shaken at 900 rpm for 2 mins, briefly spun down, and incubated for 2 hrs at RT in the dark. Donor beads were dispensed (5 μL) under green filtered <100 lux light. Plates were shaken at 900 rpm for 2 minutes, briefly spun down, and incubated overnight at RT in the dark. Luminescence was measured with excitation at 689 nm and emission at 570 nm using an EnVision plate reader (PerkinElmer) under green filtered <100 lux light.
To determine the inhibitory potency of test compounds in response to IL-2, the average emission intensity of beads bound to pSTAT5 was measured in a human T cell line. IC50 values were determined from analysis of the inhibition curves of signal intensity versus compound concentration. Data are expressed as pIC50 (negative decadic logarithm IC50) values (mean±standard deviation).

JAK1 = JAK1 (Homo sapiens (Human), UniProt P23458); test: Biochemical JAK kinase assay (LanthaScreen), JAK1
JAK1, sequence (P23458 whole entry): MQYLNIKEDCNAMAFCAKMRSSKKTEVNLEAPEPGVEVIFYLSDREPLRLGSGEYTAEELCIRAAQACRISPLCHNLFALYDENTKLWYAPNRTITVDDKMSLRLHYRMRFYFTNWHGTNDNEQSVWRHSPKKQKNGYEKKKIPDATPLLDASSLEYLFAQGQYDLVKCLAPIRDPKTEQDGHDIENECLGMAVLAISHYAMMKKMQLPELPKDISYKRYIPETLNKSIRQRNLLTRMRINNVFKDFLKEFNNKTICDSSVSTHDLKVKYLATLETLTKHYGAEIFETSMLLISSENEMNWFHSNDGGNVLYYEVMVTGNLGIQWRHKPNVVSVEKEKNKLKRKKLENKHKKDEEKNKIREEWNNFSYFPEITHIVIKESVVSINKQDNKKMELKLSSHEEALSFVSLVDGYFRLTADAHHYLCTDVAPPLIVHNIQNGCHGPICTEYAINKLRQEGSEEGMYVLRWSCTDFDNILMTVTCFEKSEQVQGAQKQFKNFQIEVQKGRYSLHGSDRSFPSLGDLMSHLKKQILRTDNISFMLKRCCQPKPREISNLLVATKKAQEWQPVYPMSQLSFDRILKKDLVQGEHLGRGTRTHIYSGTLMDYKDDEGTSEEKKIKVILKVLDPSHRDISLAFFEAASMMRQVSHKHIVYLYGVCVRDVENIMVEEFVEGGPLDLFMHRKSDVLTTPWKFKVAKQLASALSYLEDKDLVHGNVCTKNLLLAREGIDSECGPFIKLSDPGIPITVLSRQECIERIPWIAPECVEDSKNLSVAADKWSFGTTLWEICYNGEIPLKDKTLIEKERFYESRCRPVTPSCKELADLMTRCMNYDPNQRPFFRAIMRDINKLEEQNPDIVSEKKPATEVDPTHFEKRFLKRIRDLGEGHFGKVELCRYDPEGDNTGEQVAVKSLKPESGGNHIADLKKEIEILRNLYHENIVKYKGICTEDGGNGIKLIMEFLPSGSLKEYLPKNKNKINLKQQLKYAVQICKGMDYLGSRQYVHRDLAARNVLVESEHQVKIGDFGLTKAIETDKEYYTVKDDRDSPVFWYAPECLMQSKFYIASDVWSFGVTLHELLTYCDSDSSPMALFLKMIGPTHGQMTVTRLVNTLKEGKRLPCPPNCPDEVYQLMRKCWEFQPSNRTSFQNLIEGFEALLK
Description: as §1

JAK3, sequence (P52333 whole entry): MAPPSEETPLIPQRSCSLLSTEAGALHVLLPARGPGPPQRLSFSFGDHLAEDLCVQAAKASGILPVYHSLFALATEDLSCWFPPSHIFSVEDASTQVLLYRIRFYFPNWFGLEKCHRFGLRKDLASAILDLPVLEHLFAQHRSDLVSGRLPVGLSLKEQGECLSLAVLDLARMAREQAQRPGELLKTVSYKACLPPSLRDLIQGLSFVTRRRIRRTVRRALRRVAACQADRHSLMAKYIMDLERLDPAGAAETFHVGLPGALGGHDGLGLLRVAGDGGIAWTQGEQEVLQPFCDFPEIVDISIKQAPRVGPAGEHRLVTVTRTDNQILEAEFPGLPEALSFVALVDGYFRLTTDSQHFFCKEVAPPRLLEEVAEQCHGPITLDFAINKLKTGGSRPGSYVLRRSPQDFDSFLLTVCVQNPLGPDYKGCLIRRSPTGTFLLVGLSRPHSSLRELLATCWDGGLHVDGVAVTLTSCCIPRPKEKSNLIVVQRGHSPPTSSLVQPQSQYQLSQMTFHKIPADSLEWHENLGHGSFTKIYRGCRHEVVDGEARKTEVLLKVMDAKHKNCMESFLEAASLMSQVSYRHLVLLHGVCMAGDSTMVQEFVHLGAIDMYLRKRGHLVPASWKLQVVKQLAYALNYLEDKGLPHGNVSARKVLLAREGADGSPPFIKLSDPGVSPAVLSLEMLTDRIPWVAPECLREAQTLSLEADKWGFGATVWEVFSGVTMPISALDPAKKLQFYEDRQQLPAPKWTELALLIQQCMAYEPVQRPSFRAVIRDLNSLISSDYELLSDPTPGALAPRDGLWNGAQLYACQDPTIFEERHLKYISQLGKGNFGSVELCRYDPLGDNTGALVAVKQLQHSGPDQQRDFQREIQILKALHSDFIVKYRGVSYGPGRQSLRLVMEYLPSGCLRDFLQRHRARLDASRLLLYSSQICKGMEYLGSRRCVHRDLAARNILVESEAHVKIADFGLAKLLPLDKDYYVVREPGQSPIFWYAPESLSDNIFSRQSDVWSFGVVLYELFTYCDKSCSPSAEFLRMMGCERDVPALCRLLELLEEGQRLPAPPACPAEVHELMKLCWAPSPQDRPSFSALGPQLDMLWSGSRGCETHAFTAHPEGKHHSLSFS

Compound	JAK3 pKi (JAK3)	Tyk2 pKi (Tyk2)	Compound Remaining at 60 min (%) (Lung S9 metabolism)	Sulfate Appearance (Lung S9 metabolism)	microsomal CLint at 1 µM (Lung S9 metabolism) [µL/min/mg]	JAK2 pKi (JAK2)	IC50 [1] [nM]	JAK1 pKi (JAK1)
CCc1cc(O)c(F)cc1-c1ccc2c(-c3nc4c([nH]3)CN(CC)[C@H](C(=O)N3CC(N(C)C)C3)C4)n[nH]c2c1 [Compound C-2, (S)-(3-(dimethylamino)azetidin-1-yl)(5-ethyl-2-(6-(2-ethyl-5-fluoro-4-hydroxyphenyl)-1H-indazol-3-yl)-4,5,6,7-tetrahydro-3H-imidazo[4,5-c]pyridin-6-yl)methanone]	9.5	9.4	6	Yes	46.7	10.9	2	–
CCCN1Cc2[nH]c(-c3n[nH]c4cc(-c5cc(F)c(O)cc5CC)ccc34)nc2C[C@H]1C(=O)N1CC(N(C)C)C1 [Compound C-5, (S)-(3-(dimethylamino)azetidin-1-yl)(2-(6-(2-ethyl-5-fluoro-4-hydroxyphenyl)-1H-indazol-3-yl)-5-propyl-4,5,6,7-tetrahydro-3H-imidazo[4,5-c]pyridin-6-yl)methanone]	10.0	9.4	5	Yes	50.5	10.8	2	10.1
